Where two headings read alike, the source gives them in different places.
Assays:
[1] = target: recombinant HIV-1 protease (Human immunodeficiency virus type 1 group M subtype B (isolate HXB2) (HIV-1), UniProt P04585); experiment: Enzyme inhibition of purified HIV-1 protease (SensoLyte 520 HIV-Protease Assay Kit); format: biochemical; conditions: read-out: IC50 ± SD
Procedure, shortened: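 PEG-PI conjugates and parent PIs were tested against recombinant HIV-1 protease. Activity was followed as fluorescence from cleavage of a quenched substrate carrying the p17/p24 Pr^gag cleavage site.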

human monocytes = experiment: Toxicity in human monocytes in the absence of viral infection
Procedure: Fresh human monocytes were infected with the BaL strain of HIV-1 in the presence of test compounds. After seven days in culture, HIV-1 replication was evaluated by measurement of HIV-1 viral capsid protein (p24) in the tissue culture supernatant (Table 7). […] A TI was calculated as described above using TC50 values derived from cell toxicity data in response to test compounds in the absence of viral infection.

[2] = Metabolic stability in human liver microsomes; conditions: human liver microsomes, 3 μM;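 as to t1/2: microsomal protein 0.5 mg/mL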
Procedure, shortened: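 Substrate depletion: compounds at 3 μM final with pooled mixed-sex human liver microsomes (0.5 mg/mL) in 0.1 M phosphate pH 7.4 at 37 °C. Remaining parent quantified by LC-MS/MS.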

beagle dog hepatocytes = experiment: Metabolic stability in beagle dog hepatocytes; format: in vitro ADME; conditions: 0.1 uM
[3] = Metabolic stability in rat liver microsomes; format: in vitro ADME
Source text: Metabolic stability of test compounds was studied in rat liver microsomes.

in vitro [4] = format: in vitro ADME; conditions: dog, microsomes
Source text: Metabolic stability of test compounds was studied in dog liver microsomes.

in vitro [5] = format: in vitro ADME; conditions: monkey, microsomes
Source text: Metabolic stability of test compounds was studied in monkey liver microsomes.

rat plasma proteins = experiment: Plasma protein binding by equilibrium dialysis, rat plasma; format: in vitro ADME; conditions: fraction unbound
Procedure: (§1) In assays to estimate binding of test compounds to plasma proteins, test compound solutions (5 μM) are prepared in buffer and species-specific plasma (final DMSO concentration 0.5%). The plasma-containing solution is added to one side of the membrane of an equilibrium dialysis system, and the plasma-free is added to the other side. Dialysis was allowed to reach equilibrium by incubation for two hours at 37° C. The concentration of compound on both sides of the membrane was measured using LC-MS/MS.

dog plasma proteins = experiment: Plasma protein binding by equilibrium dialysis, dog plasma; format: in vitro ADME; conditions: fraction unbound
Procedure: as §1

monkey plasma proteins = experiment: Plasma protein binding by equilibrium dialysis, monkey plasma; format: in vitro ADME; conditions: fraction unbound
Procedure: as §1

CYP2C9 = CYP2C9 (Homo sapiens (Human), UniProt P11712); conditions: microsomes
Chain of CYP2C9 (P11712 whole entry): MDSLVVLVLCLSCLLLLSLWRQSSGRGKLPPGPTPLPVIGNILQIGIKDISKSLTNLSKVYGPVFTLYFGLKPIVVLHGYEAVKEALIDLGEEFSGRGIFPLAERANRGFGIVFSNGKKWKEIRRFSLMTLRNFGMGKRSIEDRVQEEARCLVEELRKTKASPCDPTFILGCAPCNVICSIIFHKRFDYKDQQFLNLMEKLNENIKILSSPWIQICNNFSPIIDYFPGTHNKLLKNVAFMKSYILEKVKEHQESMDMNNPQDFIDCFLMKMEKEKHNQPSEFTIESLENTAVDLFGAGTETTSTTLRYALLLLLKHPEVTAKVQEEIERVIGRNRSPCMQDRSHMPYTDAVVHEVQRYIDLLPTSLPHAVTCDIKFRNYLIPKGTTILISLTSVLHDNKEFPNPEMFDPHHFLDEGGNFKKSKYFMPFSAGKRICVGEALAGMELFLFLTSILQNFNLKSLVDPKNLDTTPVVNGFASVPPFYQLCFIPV

CYP3A4 = CYP3A4 (Homo sapiens (Human), UniProt P08684); experiment: CYP450 inhibition in human liver microsomes: CYP3A4;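 also: incubation at 37 °C started by adding 1 mM NADPH, with formation of the probe metabolite measured via LC-MS/MS or fluorescent detection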
Chain of CYP3A4 (P08684 whole entry): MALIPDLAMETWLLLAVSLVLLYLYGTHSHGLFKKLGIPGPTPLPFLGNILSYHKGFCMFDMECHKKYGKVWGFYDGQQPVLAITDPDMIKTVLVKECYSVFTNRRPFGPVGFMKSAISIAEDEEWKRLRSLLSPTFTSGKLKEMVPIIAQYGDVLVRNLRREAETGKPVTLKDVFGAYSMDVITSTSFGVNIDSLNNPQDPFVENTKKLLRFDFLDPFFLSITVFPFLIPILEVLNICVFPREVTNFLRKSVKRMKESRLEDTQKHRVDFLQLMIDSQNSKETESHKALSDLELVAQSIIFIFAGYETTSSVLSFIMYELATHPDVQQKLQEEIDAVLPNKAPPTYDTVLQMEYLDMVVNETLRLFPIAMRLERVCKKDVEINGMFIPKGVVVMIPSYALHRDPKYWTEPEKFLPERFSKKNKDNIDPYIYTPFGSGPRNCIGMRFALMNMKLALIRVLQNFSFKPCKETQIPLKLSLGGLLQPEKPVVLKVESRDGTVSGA

CYP1A2 = CYP1A2 (Homo sapiens (Human), UniProt P05177); experiment: CYP450 inhibition in human liver microsomes: CYP1A2; conditions: read-out: CYP1A2 IC50 Phenacetin; probe substrate phenacetin
Chain of CYP1A2 (P05177 whole entry): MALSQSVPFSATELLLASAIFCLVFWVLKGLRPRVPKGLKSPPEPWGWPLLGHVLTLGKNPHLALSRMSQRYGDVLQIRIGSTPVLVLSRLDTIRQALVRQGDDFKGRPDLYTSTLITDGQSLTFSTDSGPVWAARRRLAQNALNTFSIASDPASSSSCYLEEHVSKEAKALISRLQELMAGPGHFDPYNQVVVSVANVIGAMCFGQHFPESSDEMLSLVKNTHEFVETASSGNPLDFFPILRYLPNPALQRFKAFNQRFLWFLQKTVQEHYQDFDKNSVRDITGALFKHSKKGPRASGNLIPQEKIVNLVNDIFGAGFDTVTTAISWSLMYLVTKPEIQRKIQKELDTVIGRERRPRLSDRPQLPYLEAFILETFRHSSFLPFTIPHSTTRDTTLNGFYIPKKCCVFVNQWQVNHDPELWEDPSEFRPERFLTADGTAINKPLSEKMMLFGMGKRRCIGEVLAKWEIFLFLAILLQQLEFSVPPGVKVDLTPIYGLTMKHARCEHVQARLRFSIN

HIV-1RF = experiment: Anti-HIV cytoprotection in CEM-SS cells infected with HIV-1RF (XTT); format: cell-based; conditions: six days, XTT; read-out: CEM-SS/HIV-1RF EC50 ± SD
Procedure: To evaluate whether conjugated protease inhibitors retain the ability to protect against HIV-1 infection, CEM-SS cells infected with the RF strain of HIV-1 were treated with test compounds for six days, and then cell viability was monitored using the tetrazolium dye XTT. […] A value for Therapeutic Index (TI) was calculated as TC50/EC50.

[6] = read-out: CYP3A4 IC50 Midazolam, probe substrate midazolam
[7] = read-out: CYP3A4 IC50 Testosterone, probe substrate testosterone

For `COCCOCCOCCOCCOCCOCCOC(=O)NC(C(=O)NC(Cc1ccccc1)C(O)CN(Cc1ccc(-c2ccccn2)cc1)NC(=O)C(NC(=O)OC)C(C)(C)C)C(C)(C)C` (centres unmarked) [mono-mPEG6-Atazanavir], the IC50 [1] was 0.00131 µM, the TC50 (human monocytes) was 130.2 µM and the “CLint ± SEM” value [2] was 112 ± 1.10 μL/min/mg protein. For the same compound, the t1/2 [2] was 12.3 min, the “CLint ± SEM” value (beagle dog hepatocytes) was 0.209 ± 0.000143 μL/min/10^6 cells and the t1/2 (beagle dog hepatocytes) was 110.6 h. The t½ [3] was 104 min, the Clint (in vitro [4]) was 67.1 μL/min/mg protein and the t1/2 (in vitro [4]) was 20.7 min. For the same compound, the Clint (in vitro [5]) was 238 μL/min/mg protein, the t½ (in vitro [5]) was 104 min and the “Rat Plasma Protein Binding Fu ± SD” value (rat plasma proteins) was 0.451 ± 0.0385. For the same compound, the “Dog Plasma Protein Binding Fu ± SD” value (dog plasma proteins) was 0.497 ± 0.0386, the “Monkey Plasma Protein Binding Fu ± SD” value (monkey plasma proteins) was 0.598 ± 0.00839 and the IC50 (CYP2C9) was greater than 25 µM. It also gave an IC50 (CYP3A4; [6]) of 16.7 µM, an IC50 (CYP3A4; [7]) greater than 25 µM and an IC50 (CYP1A2) greater than 25 µM.
For `COCCOCCOCCOCCOCCOC(=O)NC(C(=O)NC(Cc1ccccc1)C(O)CN(Cc1ccc(-c2ccccn2)cc1)NC(=O)C(NC(=O)OC)C(C)(C)C)C(C)(C)C` (centres unmarked) [mono-mPEG5-Atazanavir], the IC50 [1] was 0.00291 µM, the EC50 (HIV-1RF) was 0.001 ± 0.0006 µM and the TC50 (human monocytes) was 120.8 µM. The “CLint ± SEM” value [2] was 108 ± 9.75 μL/min/mg protein, the t1/2 [2] was 12.9 min and the t½ [3] was 57.6 min. It also gave a Clint (in vitro [4]) of 93.0 μL/min/mg protein, a t1/2 (in vitro [4]) of 14.9 min and a Clint (in vitro [5]) of 175 μL/min/mg protein. The t½ (in vitro [5]) was 57.6 min, the “Rat Plasma Protein Binding Fu ± SD” value (rat plasma proteins) was 0.307 ± 0.0493 and the “Dog Plasma Protein Binding Fu ± SD” value (dog plasma proteins) was 0.695 ± 0.118. The “Monkey Plasma Protein Binding Fu ± SD” value (monkey plasma proteins) was 0.383 ± 0.359, the IC50 (CYP2C9) was 23.7 µM and the IC50 (CYP3A4; [6]) was 9.35 µM. The IC50 (CYP3A4; [7]) was greater than 25 µM and the IC50 (CYP1A2) was greater than 25 µM.
